The record followed here is publication PMC6792352, “Limited Chemical Structural Diversity Found to Modulate Thyroid Hormone Receptor in the Tox21 Chemical Library” (Environmental Health Perspectives, 2019).

Molecules are shown by their SMILES. Structures can show the parent of a compound that is named as a salt. A value given as a limit tells only on which side of the number the result lay.

The nature of the first data set: in vitro. The note with it: rat, gh3-tre-luc cells, AC50 (uM) modified / 1000.
Regarding `NNC(=O)c1cccc(C(=O)NN)c1` [1,3-Benzenedicarboxylic acid, dihydrazide], the cytotoxic concentration (CC50) (in general, the concentration that lowers cell viability or growth by half) at 24 h is > 90 µM. `O=C(O)c1cccc(C(=O)O)c1` [1,3-Benzenedicarboxylic acid]: the CC50 at 24 h was > 90 µM. Same read-out and setting: the same measure for `NCc1cccc(CN)c1` [1,3-Benzenedimethanamine]: > 90 µM; for `CC(C)(N=C=O)c1cccc(C(C)(C)N=C=O)c1` [1,3-Bis(2-isocyanato-2-propyl)benzene]: 78.6 µM; for `Cc1ccccc1NC(=N)Nc1ccccc1C` [1,3-Bis(2-methylphenyl)guanidine]: > 90 µM. For the molecule `O=C(O)c1ccc(OCCCOc2ccc(C(=O)O)cc2)cc1` [1,3-Bis(4-carboxyphenoxy)propane], the half-maximal cytotoxic concentration (CC50) at 24 h is > 50 µM.

Consider `O=C=NCC1CCCC(CN=C=O)C1` (stereo not shown) [1,3-Bis(isocyanatomethyl)cyclohexane], for which the CC50 at 24 h is > 90 µM. Regarding `C[C@H](O)CCO` [1,3-Butanediol], the CC50 at 24 h is > 90 µM. Still for that read-out and setting: for `C=C(C)C(=O)OCCC(C)OC(=O)C(=C)C` (stereo not shown) [1,3-Butyleneglycol dimethacrylate] the value was > 90 µM; for `NCC1CCCC(CN)C1` (stereo not shown) [1,3-Cyclohexanedimethanamine], > 90 µM; for `O=C1CCCC(=O)C1` [1,3-Cyclohexanedione], > 90 µM. For `CC1(C)C(=O)N(Br)C(=O)N1Br` [1,3-Dibromo-5,5-dimethylhydantoin], the cytotoxic concentration (CC50) at 24 h was > 90 µM. Same read-out and setting: for `CC(Cl)=CCCl` [1,3-Dichloro-2-butene] the value was > 90 µM; for `OC(CCl)CCl` [1,3-Dichloro-2-propanol], > 90 µM.

`CC1(C)C(=O)N(Cl)C(=O)N1Cl` [1,3-Dichloro-5,5-dimethylhydantoin]: the CC50 at 24 h was > 90 µM.

With `Clc1cccc(Cl)c1` [1,3-Dichlorobenzene], the 50% cytotoxic concentration (CC50) at 24 h is > 90 µM.

Molecule `CCCCCCCCCCn1cc[n+](CCCCCCCCCC)c1C` [1,3-Didecyl-2-methylimidazolium chloride] displayed a CC50 at 24 h of 6.21 µM.

Consider `N=C1N=C(N)c2cc3ccccc3cc21` [1,3-Diiminobenz(f)isoindoline], for which the CC50 at 24 h was found to be 39.2 µM.

In the case of `C=C(C)c1cccc(C(=C)C)c1` [1,3-Diisopropenylbenzene], the cytotoxic concentration (CC50) at 24 h is > 90 µM. In the case of `CC(C)c1cccc(C(C)C)c1` [1,3-Diisopropylbenzene], the half-maximal cytotoxic concentration (CC50) at 24 h is > 90 µM. On to `COc1cccc(OC)c1` [1,3-Dimethoxybenzene], for which the CC50 at 24 h was > 90 µM. Still for that read-out and setting: the same measure for `Cc1ccc([N+](=O)[O-])c(C)c1` [1,3-Dimethyl-4-nitrobenzene]: > 90 µM; for `Cc1cc(C)cc([N+](=O)[O-])c1` [1,3-Dimethyl-5-nitrobenzene]: > 90 µM; for `OCC1(CO)COCOC1` [1,3-Dioxane-5,5-diyldimethanol]: > 90 µM. The same measure, in the same setting: the same measure for `O=C1OCCO1` [1,3-Dioxolan-2-one]: > 100 µM.

With `C1COCO1` [1,3-Dioxolane], the CC50 at 24 h is > 90 µM. Still for that read-out and setting: for `O=C(CC(=O)c1ccccc1)c1ccccc1` [1,3-Diphenyl-1,3-propanedione] the value was > 100 µM.

In the case of `N=C(Nc1ccccc1)Nc1ccccc1` [1,3-Diphenylguanidine], the CC50 at 24 h is > 50 µM. As to `CC(C)NC(=O)NC(C)C` [1,3-Dipropan-2-ylurea], the half-maximal cytotoxic concentration (CC50) at 24 h was > 90 µM. For the molecule `O=S1(=O)CCCO1` [1,3-Propane sultone], the CC50 at 24 h was > 90 µM.

Consider `OCCCO` [1,3-Propanediol], for which the CC50 at 24 h is > 200 µM.

Turning to `C1COC1` [1,3-Propylene oxide], the half-maximal cytotoxic concentration (CC50) at 24 h is > 90 µM. Consider `Clc1cc(Cl)c2c(c1)N=C1CCCCCN1C2` [1,3-dichloro-6,7,8,9,10,12-hexahydroazepino[2,1-b]quinazoline hydrochloride (1:1)], for which the CC50 at 24 h is > 50 µM. The same measure, in the same setting: for `Oc1ccc(O)c2c(O)cccc12` [1,4,5-Trihydroxynaphthalene] the value was > 90 µM; for `O=C(Cl)c1ccc(C(=O)Cl)cc1` [1,4-Benzenedicarbonyl dichloride], > 90 µM. The same measure, in the same setting: the same measure for `COC(=O)c1ccc(C(=O)O)cc1` [1,4-Benzenedicarboxylic acid, monomethyl ester]: > 90 µM; for `O=C1C=CC(=O)C=C1` [1,4-Benzoquinone]: > 90 µM; for `CC(C)(O)c1ccc(C(C)(C)O)cc1` [1,4-Bis(2-hydroxy-2-propyl)benzene]: > 90 µM. As for `OCCOCC#CCOCCO` [1,4-Bis(2-hydroxyethoxy)-2-butyne], the CC50 at 24 h was > 90 µM. The same measure, in the same setting: the same measure for `CC(C)Nc1ccc(NC(C)C)c2c1C(=O)c1ccccc1C2=O` [1,4-Bis(N-isopropylamino)anthraquinone]: > 50 µM; for `COCc1ccc(COC)cc1` [1,4-Bis(methoxymethyl)benzene]: > 90 µM.

For `ClC(Cl)(Cl)c1ccc(C(Cl)(Cl)Cl)cc1` [1,4-Bis(trichloromethyl)benzene], the cytotoxic concentration (CC50) at 24 h is > 90 µM. Same read-out and setting: for `Clc1cnc(Oc2ccc(Oc3ncc(Cl)cc3Cl)cc2)c(Cl)c1` [1,4-Bis[2-(3,5-dichloropyridyloxy)]benzene] the value was > 60 µM. On the same count and under the same terms, the same measure for `C=COCC1CCC(COC=C)CC1` (stereo not shown) [1,4-Bis[(ethenyloxy)methyl]cyclohexane]: > 90 µM. Same read-out and setting: for `C=CC(=O)OCCCCOC(=O)C=C` [1,4-Butanediol diacrylate] the value was 17.5 µM; for `C(CCOCC1CO1)COCC1CO1` (stereo not shown) [1,4-Butanediol diglycidyl ether], > 90 µM; for `O=C(O)C1CCC(C(=O)O)CC1` (stereo not shown) [1,4-Cyclohexanedicarboxylic acid], > 90 µM. Take `OCC1CCC(CO)CC1` (stereo not shown) [1,4-Cyclohexanedimethanol]: the cytotoxic concentration (CC50) at 24 h is > 90 µM. Same read-out and setting: for `Nc1ccc(N)c2c1C(=O)c1ccccc1C2=O` [1,4-Diaminoanthraquinone] the value was 55.3 µM; for `C1CN2CCN1CC2` [1,4-Diazabicyclo[2.2.2]octane], > 100 µM. On the same count and under the same terms, for `Cc1cc(Cl)c(C)cc1Cl` [1,4-Dichloro-2,5-dimethylbenzene] the value was > 90 µM; for `ClCC=CCCl` [1,4-Dichloro-2-butene], > 90 µM; for `Clc1nnc(Cl)c2ccccc12` [1,4-Dichlorophthalazine], > 90 µM. Still for that read-out and setting: the same measure for `CCc1ccc(CC)cc1` [1,4-Diethylbenzene]: > 90 µM; for `O=C(O)c1cc(O)c2ccccc2c1O` [1,4-Dihydroxy-2-naphthoic acid]: 12.2 µM. As to `O=C1c2ccccc2C(=O)c2c(O)ccc(O)c21` [1,4-Dihydroxyanthracene-9,10-dione], the CC50 at 24 h was > 90 µM. Same read-out and setting: the same measure for `CC(C)c1ccc(C(C)C)cc1` [1,4-Diisopropylbenzene]: > 90 µM. Same read-out and setting: the same measure for `Cc1ccc(C)c([N+](=O)[O-])c1` [1,4-Dimethyl-2-nitrobenzene]: > 90 µM; for `Cc1ccc(C)c2ccccc12` [1,4-Dimethylnaphthalene]: > 90 µM; for `O=C1CCCCCCCCCCCC(=O)OCCO1` [1,4-Dioxacycloheptadecane-5,17-dione]: > 90 µM. Same read-out and setting: for `O=C1CCCCCCCCCCC(=O)OCCO1` [1,4-Dioxacyclohexadecane-5,16-dione] the value was > 90 µM; for `OC1OCCOC1O` (stereo not shown) [1,4-Dioxane-2,3-diol], > 90 µM; for `C1COCCO1` [1,4-Dioxane], > 90 µM.

For the molecule `C1CSCCS1` [1,4-Dithiane], the 50% cytotoxic concentration (CC50) at 24 h is > 90 µM. The same measure, in the same setting: the same measure for `C=Cc1ccc(C=C)cc1` [1,4-Divinylbenzene]: > 100 µM; for `CCCC1CCC(=O)O1` (stereo not shown) [1,4-Heptanolide]: > 90 µM. As to `C=CCC=CC` [1,4-Hexadiene], the CC50 at 24 h was > 90 µM.

Still in this data set, the particulars now being: rat, gh3-tre-luc cells, AC50 (uM) modified / 1000, Tox21_110001=Tox21_111293; viability, 1 nM T3 present, 24 h.
On to `Clc1ccc(Cl)cc1` [1,4-Dichlorobenzene], for which the cytotoxic concentration (CC50) at 24 h is > 50 µM.

The same data set, now with this note: rat, gh3-tre-luc cells, AC50 (uM) modified / 1000, Tox21_110001=Tox21_200235; viability, 1 nM T3 present, 24 h.
Turning to `Cl/C=C/CCl` [1,3-Dichloropropene], the CC50 at 24 h is > 90 µM.

Staying with this data set, now noted: rat, gh3-tre-luc cells, AC50 (uM) modified / 1000, Tox21_110001=Tox21_200399; viability, 1 nM T3 present, 24 h.
As to `Clc1ccc(Cl)cc1` [1,4-Dichlorobenzene], the CC50 at 24 h is > 90 µM.

Still in this data set, the particulars now being: rat, gh3-tre-luc cells, AC50 (uM) modified / 1000, Tox21_110001=Tox21_201140; viability, 1 nM T3 present, 24 h.
In the case of `ClCCCCl` [1,3-Dichloropropane], the CC50 at 24 h was > 100 µM.

Still in this data set, the particulars now being: rat, gh3-tre-luc cells, AC50 (uM) modified / 1000, Tox21_110001=Tox21_201157; viability, 1 nM T3 present, 24 h.
On to `CC(C)CC(C)N` (stereo not shown) [1,3-Dimethylbutylamine], for which the cytotoxic concentration (CC50) at 24 h is > 90 µM.

The data set is the same for the next values; noted with them: rat, gh3-tre-luc cells, AC50 (uM) modified / 1000, Tox21_110001=Tox21_201288; viability, 1 nM T3 present, 24 h.
Consider `Brc1ccc(Br)cc1` [1,4-Dibromobenzene], for which the CC50 at 24 h was > 90 µM.

Staying with this data set, now noted: rat, gh3-tre-luc cells, AC50 (uM) modified / 1000, Tox21_110001=Tox21_201433; viability, 1 nM T3 present, 24 h.
`O=C(CCl)CCl` [1,3-Dichloropropanone] showed a 50% cytotoxic concentration (CC50) at 24 h of 32.6 µM.

The data set is the same for the next values; noted with them: rat, gh3-tre-luc cells, AC50 (uM) modified / 1000, Tox21_110001=Tox21_202245; viability, 1 nM T3 present, 24 h.
For the molecule `OCCCCO` [1,4-Butanediol], the CC50 at 24 h was > 90 µM.

Still in this data set, the particulars now being: rat, gh3-tre-luc cells, AC50 (uM) modified / 1000, Tox21_110001=Tox21_202716; viability, 1 nM T3 present, 24 h.
As for `BrCCCBr` [1,3-Dibromopropane], the cytotoxic concentration (CC50) at 24 h is > 100 µM.

Staying with this data set, now noted: rat, gh3-tre-luc cells, AC50 (uM) modified / 1000, Tox21_110001=Tox21_301070; viability, 1 nM T3 present, 24 h.
Regarding `BrCCCCBr` [1,4-Dibromobutane], the CC50 at 24 h is > 90 µM.

The data set is the same for the next values; noted with them: rat, gh3-tre-luc cells, AC50 (uM) modified / 1000, Tox21_110001=Tox21_302809; viability, 1 nM T3 present, 24 h.
Molecule `O=C(CCl)CCl` [1,3-Dichloropropanone] registered a CC50 at 24 h of 27.3 µM.

The data set is the same for the next values; noted with them: rat, gh3-tre-luc cells, AC50 (uM) modified / 1000, Tox21_110001=Tox21_400056; viability, 1 nM T3 present, 24 h.
For `O=[N+]([O-])c1cc([N+](=O)[O-])c2ccccc2c1` [1,3-Dinitronaphthalene], the half-maximal cytotoxic concentration (CC50) at 24 h was > 90 µM.
